The format of data set [1] is in vivo, human. The following applies: for AUC(0-inf) / AUC(0-t) / Cmax / Tmax / Vd / half-life / clearance: human, intravenous; for AUC(0-inf) / AUC(0-t) / Cmax / Tmax / Vd / half-life: plasma; for clearance: whole blood; for change of exposure (AUC) with dose: temsirolimus 8, 10 and 15 mg/m^2.
The conditions of data set [2]: adults, metastatic prostate cancer; with cixutumumab 6 mg/kg IV; cited from earlier work.
The nature of data set [3]: Phase I toxicity, DLT and MTD determination. Conditions: for recommended pediatric phase II dose: IV once every 7 days. It is filed as in vivo, human.
The conditions of data set [4]: cited from earlier work.
The nature of another data set: Cixutumumab. Conditions: for AUC0–7d / CL / CL (weight-adjusted) / Cmax / Vdss / Vdss (weight-adjusted): median.
For data set [5] the following is noted: in vivo; cited from earlier work.
For data set [6] the following is noted: in vivo, 6 mg/kg; cited from earlier work.
Where [7] appears, read: all patients, combination with temsirolimus.
Setting [8] is: cycle 1, IMC-A12 6 mg/kg + temsirolimus 8 mg/m^2 (n=8).
[9] abbreviates: cycle 1, IMC-A12 6 mg/kg + temsirolimus 10 mg/m^2 (n = 3).
The mark [10] stands for this setting: cycle 1, IMC-A12 6 mg/kg + temsirolimus 15 mg/m^2 (n = 4).

Where two headings read alike, the source gives them in different places.

The term AUC(0-inf) denotes total exposure, with the tail of the curve extrapolated. A lower AUC(0-inf) goes with less exposure. As usually defined, the AUC(0-t) is the area under the concentration-time curve up to a stated or last time point. A low value points to low exposure. As a reminder, the Cmax is the peak of the concentration-time curve. The term Tmax denotes the time at which the peak concentration occurs. As a reminder, the Vd is the apparent volume that relates the amount in the body to the concentration in plasma or blood. A higher Vd goes with wide distribution into tissue. One may read the half-life as the time in which the quantity being followed falls by half. For orientation: clearance means the rate of elimination divided by the concentration. For `CO[C@H]1C[C@@H]2CC[C@@H](C)[C@@](O)(O2)C(=O)C(=O)N2CCCC[C@H]2C(=O)O[C@H]([C@H](C)C[C@@H]2CC[C@@H](OC(=O)C(C)(CO)CO)[C@H](OC)C2)CC(=O)[C@H](C)/C=C(\C)[C@@H](O)[C@@H](OC)C(=O)[C@H](C)C[C@H](C)/C=C/C=C/C=C/1C` [Temsirolimus], in data set [1] (8 mg/m2), the AUC(0-inf) was 2950 ng·h/mL, the AUC(0-t) turned out to be 2020 ng·h/mL, the highest level (Cmax) was 509 ng/mL and the time of peak concentration (Tmax) stood at 0.8 h. In data set [1] (8 mg/m2), this compound gave a Vd of 46.3 L, a half-life of 10.3 h and a clearance of 38.3 mL/min. In addition, in data set [1] (10 mg/m2), the AUC(0-inf) amounted to 3650 ng·h/mL, the AUC(0-t) was 2650 ng·h/mL, the Cmax was determined as 606 ng/mL and the Tmax is 0.7 h. Moreover, in data set [1] (10 mg/m2), the Vd is 50.4 L, the half-life was 10.5 h and the clearance is 91.7 mL/min. Besides, in data set [1] (15 mg/m2), the area under the curve AUC(0-inf) stood at 3270 ng·h/mL, the AUC(0-t) is 2780 ng·h/mL, the highest concentration (Cmax) was 660 ng/mL and the time of peak concentration (Tmax) worked out at 0.6 h. In data set [1] (15 mg/m2), the Vd was found to be 74.9 L, the half-life is 10.3 h and the clearance is 112 mL/min. In data set [1], the “change of exposure (AUC) with dose” value is listed as “did not increase significantly with dose”. In data set [2], the “MTD of temsirolimus in the combination, flat dose” value is 20 mg and the “MTD of temsirolimus in the combination, per body surface” value is on record as 11 mg/m^2. In addition, in data set [3] (temsirolimus combined with cixutumumab 6 mg/kg, children), the MTD stood at 8 mg/m^2. Besides, the “recommended pediatric phase II dose” value in data set [3] (temsirolimus in combination with cixutumumab) amounted to 8 mg/m^2. Further, in data set [4] (after a 25-mg dose), the “clearance from whole blood, mean” value is recorded as 20 L/h and the “steady-state volume of distribution (Vss)” value is on record as 230 L. In data set [4] (after a 250-mg dose), the “clearance from whole blood, mean” value is on record as 100 L/h and the “steady-state volume of distribution (Vss)” value was 900 L.

`CO[C@H]1C[C@@H]2CC[C@@H](C)[C@@](O)(O2)C(=O)C(=O)N2CCCC[C@H]2C(=O)O[C@H]([C@H](C)C[C@@H]2CC[C@@H](O)[C@H](OC)C2)CC(=O)[C@H](C)/C=C(\C)[C@@H](O)[C@@H](OC)C(=O)[C@H](C)C[C@H](C)/C=C/C=C/C=C/1C` [Sirolimus]: the results for the “change of exposure (AUC) with dose” value in data set [1] and in data set [1] (listed as sirolimus) were “did not appreciably increase with dose” and “did not increase significantly with dose”, respectively.

What is called Vdss is the apparent volume that relates the amount in the body to the concentration in plasma or blood. For “Cixutumumab: fully recombinant IgG1 monoclonal antibody that specifically targets the human IGF-IR1”, in “Cixutumumab” (setting [7]), the median half-life was 122 h and the median weight-adjusted clearance came to 4.08 mL/day/kg. In “Cixutumumab” (at 6 mg/kg, children), this compound showed a half-life of 122 h and a steady-state trough concentration of 197 mg/mL. Besides, the “median serum trough concentration (Ctrough)” value in “Cixutumumab” (day 28 following a 6 mg/kg dose) is on record as “approximately 200 μg/ml”. In the data set “Cixutumumab” (setting [8]), the “AUC0–7d” value was determined as 20.6 ng·h/mL, the CL stood at 8.3 mL/h, the “CL (weight-adjusted)” value is 4.56 mL/day/kg and the Cmax worked out at 281000 ng/mL. In “Cixutumumab” (setting [8]), the volume of distribution (Vdss) was 1050 mL and the “Vdss (weight-adjusted)” value was 0.0258 L/kg. In the data set “Cixutumumab” (setting [9]), the “AUC0–7d” value turned out to be 25.6 ng·h/mL, the CL was found to be 9.9 mL/h, the “CL (weight-adjusted)” value was determined as 4.08 mL/day/kg and the Cmax is 277000 ng/mL. In addition, in “Cixutumumab” (setting [9]), the Vdss turned out to be 1750 mL and the “Vdss (weight-adjusted)” value worked out at 0.0227 L/kg. Moreover, in the data set “Cixutumumab” (setting [10]), the “AUC0–7d” value came out at 26.4 ng·h/mL, the CL is given as 7.0 mL/h, the “CL (weight-adjusted)” value came out at 3.12 mL/day/kg and the maximum concentration (Cmax) worked out at 230000 ng/mL. Besides, in “Cixutumumab” (setting [10]), the Vdss amounted to 1860 mL and the “Vdss (weight-adjusted)” value was determined as 0.0311 L/kg. For the same compound, in the data set “Cixutumumab” (temsirolimus 8 to 15 mg/m^2), the “change in cixutumumab clearance as the temsirolimus dose was increased” value is reported as “no changes”. Further, in data set [3] (cixutumumab in combination with temsirolimus), the “recommended pediatric phase II dose” value worked out at 6 mg/kg. The “recommended phase II dose, single agent” value in data set [5] is 9 mg/kg. In data set [6], the half-life was 209 h and the steady-state trough concentration is 145 mg/mL.
